According to US20060069132A1, “Azolecarboxamide herbicides” (priority 2004, published 2006):

Legend:
morningglory = experiment: Test B pre-/postemergence herbicide test; type: in vivo, Ipomoea coccinea; details: for Morningglory plant response rating: postemergence, visual rating, scale 0 (no effect) to 100 (complete control)
How it was run: (§1)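 Test chemicals in a non-phytotoxic solvent mixture with surfactant were applied preemergence to seeded species and postemergence to plants 2-18 cm tall (1- to 4-leaf stage); rice and barnyardgrass were also tested in a flooded paddy at the 2-leaf stage. Visual rating versus controls after 13-15 days in greenhouse, scale 0 (no effect) to 100 (complete control).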

large crabgrass = experiment: Test B pre-/postemergence herbicide test; type: in vivo, Digitaria sanguinalis; details: for Crabgrass, Large plant response rating: postemergence, visual rating, scale 0 (no effect) to 100 (complete control)
How it was run: (§2)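 Plants compared with untreated controls 13–15 days post-treatment and given a visual 0–100 injury score. Applications: preemergence to seeds; postemergence at 1- to 4-leaf (2–18 cm); paddy species flooded, 2-leaf stage. Vehicle non-phytotoxic, surfactant included.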

wheat = experiment: Test B postemergence herbicide test; type: in vivo, Triticum aestivum; design: key to Wheat plant response rating: 0 = no effect, 100 = complete control; details: postemergence, visual rating, scale 0 (no effect) to 100 (complete control)
How it was run: (§3)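 Greenhouse test; postemergence application to plants at 1–4 leaves (2–18 cm); paddy species at 2 leaves; evaluated visually vs controls at 13–15 days; scale 0–100 (100 = complete control).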

giant foxtail = experiment: Test B pre-/postemergence herbicide test; type: in vivo, Setaria faberi; details: for Foxtail, Giant plant response rating: postemergence, visual rating, scale 0 (no effect) to 100 (complete control)
How it was run: as §2

cocklebur = experiment: Test B pre-/postemergence herbicide test; type: in vivo, Xanthium strumarium; details: for Cocklebur plant response rating: postemergence, visual rating, scale 0 (no effect) to 100 (complete control)
How it was run: as §1

ducksalad [1] = experiment: Test B flooded paddy test; type: in vivo, Heteranthera limosa; details: 1000 g ai/ha, visual rating, scale 0 to 100 (0 no effect, 100 complete control), 13 to 15 days
How it was run: (§4)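 Paddy species grown to the 2-leaf stage under flooding; blackgrass sprayed postemergence at 2–18 cm (1- to 4-leaf stage). Plants kept in a greenhouse for 13 to 15 days, then visually rated against controls on 0 (no effect) to 100 (complete control).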

corn = experiment: Test B pre-/postemergence herbicide test; type: in vivo, Zea mays; details: for Corn plant response rating: postemergence, visual rating, scale 0 (no effect) to 100 (complete control)
How it was run: as §2

wild oat = experiment: Test B postemergence herbicide test; type: in vivo, Avena fatua; details: postemergence, visual rating, scale 0 (no effect) to 100 (complete control)
How it was run: as §3

velvetleaf = experiment: Test B pre-/postemergence herbicide test; type: in vivo, Abutilon theophrasti; details: for Velvetleaf plant response rating: postemergence, visual rating, scale 0 (no effect) to 100 (complete control)
How it was run: as §2

[2] = test system: small flower umbrella sedge; experiment: Test B flooded paddy test; type: in vivo, Cyperus difformis; details: 1000 g ai/ha, visual rating, scale 0 to 100 (0 no effect, 100 complete control), 13 to 15 days
How it was run: as §4

blackgrass = experiment: Test B postemergence herbicide test; type: in vivo, Alopecurus myosuroides; details: postemergence, visual rating, scale 0 (no effect) to 100 (complete control)
How it was run: as §4

pigweed = experiment: Test B pre-/postemergence herbicide test; type: in vivo, Amaranthus retroflexus; details: for Pigweed plant response rating: postemergence, visual rating, scale 0 (no effect) to 100 (complete control)
How it was run: as §2

barnyardgrass [3] = experiment: Test B pre-/postemergence herbicide test; type: in vivo, Echinochloa crus-galli; details: for Barnyardgrass plant response rating: postemergence, visual rating, scale 0 (no effect) to 100 (complete control)
How it was run: as §1

lambsquarters = experiment: Test B pre-/postemergence herbicide test; type: in vivo, Chenopodium album; details: for Lambsquarters plant response rating: postemergence, visual rating, scale 0 (no effect) to 100 (complete control)
How it was run: as §2

barnyardgrass [4] = experiment: Test C flooded paddy test; type: in vivo, Echinochloa crus-galli
How it was run: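 Plants were grown to the 1- to 4-leaf stage (2–18 cm) and then treated postemergence, or grown to the 2-leaf stage for the flooded paddy test. They were held in a greenhouse for 12 to 14 days and then scored by eye against controls, where 0 is no effect and 100 is complete control.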

rice [5] = experiment: Test C flooded paddy test; type: in vivo, Oryza sativa
How it was run: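 Postemergence sprays applied to plants 2 to 18 cm tall (1- to 4-leaf stage); paddy species grown to 2-leaf stage under flooding. After 12 to 14 days in greenhouse, visual rating versus untreated controls on 0–100 scale (0 no effect, 100 complete control).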

Surinam grass = experiment: Test B pre-/postemergence herbicide test; type: in vivo, Urochloa decumbens; details: for Surinam Grass plant response rating: postemergence, visual rating, scale 0 (no effect) to 100 (complete control)
How it was run: as §2

rice [6] = experiment: Test B flooded paddy test; type: in vivo, Oryza sativa; details: 1000 g ai/ha, visual rating, scale 0 to 100 (0 no effect, 100 complete control), 13 to 15 days
How it was run: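 Formulated test chemicals went onto postemergence plants measuring 2 to 18 cm, at one to four leaves. For the paddy assay, species had reached two leaves. Scoring took place 13–15 days later by eye, relative to untreated plants, using 0 for no effect up to 100 for full control.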

[7] = test system: smallflower umbrella sedge; experiment: Test C flooded paddy test; type: in vivo, Cyperus difformis
barnyardgrass [8] = experiment: Test B flooded paddy test; type: in vivo, Echinochloa crus-galli; details: 1000 g ai/ha, visual rating, scale 0 to 100 (0 no effect, 100 complete control), 13 to 15 days
How it was run: as §4

ducksalad [9] = experiment: Test C flooded paddy test; type: in vivo, Heteranthera limosa
rice [10] = experiment: Test B pre-/postemergence herbicide test; type: in vivo, Oryza sativa; details: preemergence
How it was run: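 Greenhouse pot assay with simultaneous preemergence (treated seed) and postemergence (2–18 cm seedlings) applications of surfactant-containing, non-phytotoxic solvent formulations. Response scored visually 13–15 days later on a 0–100 scale, 100 meaning complete control.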

[11] = 125 g ai/ha, 0 = no effect, 100 = complete control, preemergence
[12] = 500 g ai/ha, visual rating 0-100, 0 no effect, 100 complete control, preemergence
[13] = 62 g ai/ha, scale 0 to 100 (0 no effect, 100 complete control)
[14] = 250 g ai/ha, scale of 0 to 100, 0 is no effect, 100 is complete control
[15] = 500 g ai/ha, visual rating after 12 to 14 days, scale 0 to 100 (0 no effect, 100 complete control)
[16] = 125 g ai/ha, scale 0 to 100 (0 no effect, 100 complete control)

CCc1nn(C(C)(C)C)cc1C(=O)Nc1cccc(C(C)=O)c1 [Compound 187]
Morningglory plant response rating (0 to 100 scale) (morningglory; [11]): 20
Plant response rating, Morningglory (morningglory; [12]): 30
Morningglory plant response rating (morningglory; 125 g ai/ha): 20
Morningglory plant response rating (morningglory; 500 g ai/ha): 20
Crabgrass, Large plant response rating (0 to 100 scale) (large crabgrass; [11]): 70
Plant response rating, Crabgrass, Large (large crabgrass; [12]): 100
Crabgrass, Large plant response rating (large crabgrass; 125 g ai/ha): 10
Crabgrass, Large plant response rating (large crabgrass; 500 g ai/ha): 10
Wheat plant response rating (wheat; 125 g ai/ha): 0
Wheat plant response rating (wheat; 500 g ai/ha): 0
Foxtail, Giant plant response rating (0 to 100 scale) (giant foxtail; [11]): 10
Plant response rating, Foxtail, Giant (giant foxtail; [12]): 70
Foxtail, Giant plant response rating (giant foxtail; 125 g ai/ha): 10
Foxtail, Giant plant response rating (giant foxtail; 500 g ai/ha): 10
Cocklebur plant response rating (0 to 100 scale) (cocklebur; [11]): 0
Plant response rating, Cocklebur (cocklebur; [12]): 0
Cocklebur plant response rating (cocklebur; 125 g ai/ha): 30
Cocklebur plant response rating (cocklebur; 500 g ai/ha): 70
Ducksalad plant response rating (ducksalad [1]): 90
Corn plant response rating (0 to 100 scale) (corn; [11]): 20
Plant response rating, Corn (corn; [12]): 60
Corn plant response rating (corn; 125 g ai/ha): 0
Corn plant response rating (corn; 500 g ai/ha): 20
Oat, Wild plant response rating (wild oat; 125 g ai/ha): 10
Oat, Wild plant response rating (wild oat; 500 g ai/ha): 20
Velvetleaf plant response rating (0 to 100 scale) (velvetleaf; [11]): 10
Plant response rating, Velvetleaf (velvetleaf; [12]): 20
Velvetleaf plant response rating (velvetleaf; 125 g ai/ha): 0
Velvetleaf plant response rating (velvetleaf; 500 g ai/ha): 10
Sedge, Umbrella plant response rating [2]: 80
Blackgrass plant response rating (blackgrass; 125 g ai/ha): 0
Blackgrass plant response rating (blackgrass; 500 g ai/ha): 0
Pigweed plant response rating (0 to 100 scale) (pigweed; [11]): 20
Plant response rating, Pigweed (pigweed; [12]): 60
Pigweed plant response rating (pigweed; 125 g ai/ha): 20
Pigweed plant response rating (pigweed; 500 g ai/ha): 20
Barnyardgrass plant response rating (0 to 100 scale) (barnyardgrass [3]; [11]): 70
Plant response rating, Barnyardgrass (barnyardgrass [3]; [12]): 90
Barnyardgrass plant response rating (barnyardgrass [3]; 125 g ai/ha): 10
Barnyardgrass plant response rating (barnyardgrass [3]; 500 g ai/ha): 10
Lambsquarters plant response rating (0 to 100 scale) (lambsquarters; [11]): 20
Plant response rating, Lambsquarters (lambsquarters; [12]): 40
Lambsquarters plant response rating (lambsquarters; 125 g ai/ha): 0
Lambsquarters plant response rating (lambsquarters; 500 g ai/ha): 0
Barnyardgrass plant response rating (barnyardgrass [4]; [13]): 0
Barnyardgrass plant response rating (barnyardgrass [4]; 125 g ai/ha, scale of 0 to 100, 0 is no effect, 100 is complete control): 25
Barnyardgrass plant response rating (barnyardgrass [4]; [14]): 60
Plant response rating, Barnyardgrass (barnyardgrass [4]; [15]): 75
Rice plant response rating (rice [5]; [13]): 15
Rice plant response rating (rice [5]; [16]): 30
Rice plant response rating (rice [5]; [14]): 50
Plant response rating, Rice (rice [5]; [15]): 65
Surinam Grass plant response rating (0 to 100 scale) (Surinam grass; [11]): 30
Plant response rating, Surinam Grass (Surinam grass; [12]): 70
Surinam Grass plant response rating (Surinam grass; 125 g ai/ha): 10
Surinam Grass plant response rating (Surinam grass; 500 g ai/ha): 10
Rice plant response rating (rice [6]): 30
Sedge, Umbrella plant response rating [7, 13]: 20
Sedge, Umbrella plant response rating [7, 16]: 65
Sedge, Umbrella plant response rating [7, 14]: 80
Plant response rating, Sedge, Umbrella [7, 15]: 85
Barnyardgrass plant response rating (barnyardgrass [8]): 60
Ducksalad plant response rating (ducksalad [9]; [13]): 20
Ducksalad plant response rating (ducksalad [9]; [16]): 40
Ducksalad plant response rating (ducksalad [9]; [14]): 85
Plant response rating, Ducksalad (ducksalad [9]; [15]): 90
Rice plant response rating (0 to 100 scale) (rice [10]; 125 g ai/ha, 0 = no effect, 100 = complete control): 30
Plant response rating, Rice (rice [10]; 500 g ai/ha, visual rating 0-100, 0 no effect, 100 complete control): 80
